From patent US20040242671A1, “Use of 2-oxo-1-pyrrolidine derivatives for the preparation of a drug” (priority 2001, published 2004)

How the values were obtained:
[1] = A. J. GOWER et al., Eur. J. Pharmacol., 222, (1992), 193-203; cited from earlier work
[2] = system: MPTP-lesioned marmoset model of Parkinson's disease; assay: Parkinsonian disability score with L-DOPA, MPTP-lesioned marmoset (Example 1); assay type: in vivo, marmosets (Callithrix jacchus); conditions: for Disability scores: levetiracetam 13, 30 and 60 mg/kg + L-DOPA 12 mg/kg, p>0.05
Method: (§1) This study was designed to investigate whether levetiracetam has anti-dyskinetic activity in the 1-methyl-4-phenyl-1,2,3,6-tetrahydropyridine (MPTP)-lesioned marmoset model of Parkinson's disease. The effect of levetiracetam on L-3,4-dihydroxyphenylalanine (L-DOPA)-induced dyskinesias and alleviation of parkinsonism symptoms was investigated.
(§2) The study was performed on seven adult marmosets (Callithrix jacchus) bred in a closed colony. The marmosets were rendered parkinsonian by subcutaneous injection of 2 mg/kg MPTP for 5 consecutive days. The marmosets were allowed to recover for 18 weeks until their parkinsonism became stable. The degree of activity and disability before and after MPTP treatment was assessed using a combination of scales that measure locomotor activity, mobility, bradykinesia and posture. Animals were treated with L-DOPA (12.5 mg/kg b.i.d. for 6 weeks) to prime them to elicit dyskinesia.
(§3) All drugs were administered orally in a volume of 5 ml/kg via a syringe in the animal's home cage. The animals were immediately transferred to the experimental cage (60 cm×55 cm×75 cm, with the perch 25 cm from floor of cage) for behavioural assessment. Vehicle was apple juice in all cases.
(§4) 2) Parkinsonian disability—non-parametric measures based on the following scales
(§5) a) Range of movement score: 0=no movement, 1=movement of head on the floor of the cage, 2=movement of limbs, but no locomotion, on the floor of the cage, 3=movement of head or trunk on wall of cage or perch, 4=movement of limbs, but no locomotion, on wall of cage or perch, 5=walking around floor of cage or eating from hopper on floor, 6=hopping on floor of cage, 7=climbing onto wall of cage or perch, 8=climbing up and down the walls of the cage or along perch, 9=running, jumping, climbing between cage walls/perch/roof, uses limbs through a wide range of motion and activity.
(§6) b) Bradykinesia score: 0=normal speed and initiation of movement, 1=mild slowing of movement, 2=moderate slowing, difficulty initiating and maintaining movement, marked freezing, 3=akinetic, unable to move, with prolonged freezing episodes
(§7) c) Postural abnormality score: 0=normal, upright, holds head up, normal balance, 1=abnormal, crouched, face down, may lose balance. […]
(§8) Behaviour was assessed for 6 hours post drug administration. Behavioural test 1, activity, was assessed every 5 minutes for 6 hours post drug administration. Behavioural tests 2 and 3, parkinsonian disability and dyskinesia, respectively, were assessed for 10 minutes every 30 minutes over the course of 6 hours, by post hoc analysis of video-recordings by an observer blinded to the treatment. […]

[3] = system: MPTP-lesioned marmoset model of Parkinson's disease; assay: L-DOPA-induced dyskinesia score, MPTP-lesioned marmoset (Example 1); assay type: in vivo, marmosets (Callithrix jacchus); conditions: for Dyskinesia: first hour post drug administration, vs L-DOPA + vehicle
Method: as §1, §2, §3
3)Dyskinesia—non-parametric measures based on the following scale Dyskinesia score: 0=Absent, 1=Mild, fleeting, 2=Moderate, not interfering with normal activity, 3=Marked, at times interfering with normal activity, 4=Severe, continuous, replacing normal activity.
(§9) Behaviour was assessed for 6 hours post drug administration. Behavioural test 1, activity, was assessed every 5 minutes for 6 hours post drug administration. Behavioural tests 2 and 3, parkinsonian disability and dyskinesia, respectively, were assessed for 10 minutes every 30 minutes over the course of 6 hours, by post hoc analysis of video-recordings by an observer blinded to the treatment. The score given in each 10 minutes time period represents the maximum score achieved during that time period.
Table 1 outlines the randomised treatment schedule i.e. three doses of levetiracetam drug in combination with a single dose of L-DOPA. The actions of each of these three combination therapies were compared with that of L-DOPA plus the appropriate vehicle. Thus, a total of four treatments were given.

[4] = system: MPTP-lesioned marmoset model of Parkinson's disease; assay: L-DOPA-induced dyskinesia score, MPTP-lesioned marmoset (Example 2); assay type: in vivo, marmosets (Callithrix jacchus); conditions: for Dyskinesia: first hour post drug administration, vs L-DOPA + vehicle, p<0.05
Method: (§10) This study was designed to investigate whether the compound ((2S)-2-[(4S)-4-(2,2-difluorovinyl)-2-oxopyrrolidinyl]butanamide) (named compound A) has anti-dyskinetic activity in the 1-methyl-4-phenyl-1,2,3,6-tetrahydropyridine (MPTP)—lesioned marmoset model of Parkinson's disease. The effect of the compound A on L-3,4-dihydroxyphenylalanine (L-DOPA)-induced dyskinesias and alleviation of anti parkinsonism symptoms was investigated.
as §2, with “nine” for “seven”, “(13.9+/−0.8” for “(12.5”
as §3
3)Dyskinesia—non-parametric measures based on the following scale
Dyskinesia score: 0=Absent, 1=Mild, fleeting, 2=Moderate, not interfering with normal activity, 3=Marked, at times interfering with normal activity, 4=Severe, continuous, replacing normal activity.
as §9
Four doses of compound A drug (1 mg/kg, 3 mg/kg, 10 mg/kg and 30 mg/kg) in combination with a single dose of L-DOPA were tested using a randomized treatment schedule. The actions of each of these four combination therapies were compared with that of L-DOPA plus the appropriate vehicle. Thus, a total of five treatments were given.

[5] = system: MPTP-lesioned marmoset model of Parkinson's disease; assay: Parkinsonian disability score with L-DOPA, MPTP-lesioned marmoset (Example 2); assay type: in vivo, marmosets (Callithrix jacchus); conditions: for Disability scores: compound A 1, 3, 10 and 30 mg/kg + L-DOPA, p>0.05
Method: as §10
as §2, with “nine” for “seven”, “(13.9+/−0.8” for “(12.5”
as §3, §4, §5, §6, §7, §8

[6] = system: MPTP-lesioned marmoset model of Parkinson's disease; assay: Parkinsonian disability with Ropinirole, MPTP-lesioned marmoset (Example 3); assay type: in vivo, marmosets (Callithrix jacchus); conditions: for Parkinsonian disability: Levetiracetam 13 mg/kg + Ropinirole 3.75 mg/kg
Method: This study was designed to investigate whether Levetiracetam has a potential as an adjunctive anti-parkinsonian agent to dopamine replacement therapy in the 1-methyl-4-phenyl-1,2,3,6-tetrahydropyridine (MPTP)-lesioned marmoset model of Parkinson's disease. The effect of Levetiracetam on Ropinirole alleviation of parkinsonism symptoms was investigated. The study was performed on six adult marmosets (Callithrix jacchus; 4 female, 2 male). The marmosets were rendered parkinsonian by subcutaneous injection of 2 mg/kg MPTP for 5 consecutive days. The marmosets were allowed to recover for 18 weeks until their parkinsonism was stable. The degree of activity and disability before and after MPTP treatment were assessed using a combination of scales that measure locomotor activity, mobility, bradykinesia and posture. Animals were treated with L-DOPA 12 mg/kg b.i.d. for 6 weeks. After this time, animals were used for assessment of potential symptomatic antiparkinsonian therapy. All drugs were administered orally in a volume of 5 ml/kg via a syringe in the animal's home cage. The animals were immediately transferred to an experimental cage (60 cm×55 cm×75 cm, with the perch 25 cm from floor of cage) for behavioural assessment. Vehicle was apple juice in all cases. The doses were 3.75 mg/kg of Ropinirole in combination with Levetiracetam at 13, 30 and 60 mg/kg. Behaviour was assessed for 6 hours post drug administration. […] Behavioural test 1 (activity) was assessed every 5 minutes for 6 hours post drug administration. Behavioural tests 2 (parkinsonian disability) was assessed for 10 minutes every 30 minutes over the course of 6 hours, by post hoc analysis of video-recordings by an observer blinded to the treatment. The score given/achieved in each 10 minute time period was presented.

[7] = system: MPTP-lesioned marmoset model of Parkinson's disease; assay: Activity and on-time with Ropinirole, MPTP-lesioned marmoset (Example 3); assay type: in vivo, marmosets (Callithrix jacchus); conditions: for "on-time" / Activity: P<0.01; for Enhancement of "on-time": six hour experiment
Method: This study was designed to investigate whether Levetiracetam has a potential as an adjunctive anti-parkinsonian agent to dopamine replacement therapy in the 1-methyl-4-phenyl-1,2,3,6-tetrahydropyridine (MPTP)-lesioned marmoset model of Parkinson's disease. The effect of Levetiracetam on Ropinirole alleviation of parkinsonism symptoms was investigated. The study was performed on six adult marmosets (Callithrix jacchus; 4 female, 2 male). The marmosets were rendered parkinsonian by subcutaneous injection of 2 mg/kg MPTP for 5 consecutive days. The marmosets were allowed to recover for 18 weeks until their parkinsonism was stable. The degree of activity and disability before and after MPTP treatment were assessed using a combination of scales that measure locomotor activity, mobility, bradykinesia and posture. Animals were treated with L-DOPA 12 mg/kg b.i.d. for 6 weeks. After this time, animals were used for assessment of potential symptomatic antiparkinsonian therapy. All drugs were administered orally in a volume of 5 ml/kg via a syringe in the animal's home cage. The animals were immediately transferred to an experimental cage (60 cm×55 cm×75 cm, with the perch 25 cm from floor of cage) for behavioural assessment. Vehicle was apple juice in all cases. The doses were 3.75 mg/kg of Ropinirole in combination with Levetiracetam at 13, 30 and 60 mg/kg. Behaviour was assessed for 6 hours post drug administration. 1) Activity—a quantitative assessment using computer-based activity monitors was obtained every 5 minutes for the duration of the experiment. Behavioural test 1 (activity) was assessed every 5 minutes for 6 hours post drug administration. Behavioural tests 2 (parkinsonian disability) was assessed for 10 minutes every 30 minutes over the course of 6 hours, by post hoc analysis of video-recordings by an observer blinded to the treatment. The score given/achieved in each 10 minute time period was presented. Cumulated data for parkinsonian disability, range of movement, bradykinesia and postural abnormalities were analysed with a non-parametric repeated measures one-way ANOVA (Friedman's test) followed by Dunn's multiple comparison test (Graphpad Prism version 3).

[8] = L-DOPA alone (13.9+/−0.8 mg/kg), oral
[9] = any time-point after one hour post drug administration
[10] = first hour post drug administration
[11] = Levetiracetam 13 mg/kg + Ropinirole 3.75 mg/kg
[12] = Levetiracetam 30 mg/kg + Ropinirole 3.75 mg/kg

CC[C@H](C(N)=O)N1CCCC1=O [(R)-(+)-α-ethyl-2-oxo-1-pyrrolidine-acetamide]
Activity in the treatment of epilepsy [1]: completely devoid of activity

N[C@@H](Cc1ccc(O)c(O)c1)C(=O)O [L-DOPA, L-3,4-dihydroxyphenylalanine]
Effect on parkinsonian symptoms ([2]; L-DOPA 12 mg/kg alone, oral): reversed parkinsonian symptoms | Dyskinesia accompanying alleviation of parkinsonian symptoms ([3]; L-DOPA 12 mg/kg alone, oral): severe dyskinesia | Dyskinesia accompanying alleviation of parkinsonian symptoms [4, 8]: accompanied by dyskinesia | Effect on parkinsonian symptoms [5, 8]: reversed parkinsonian symptoms

CC[C@@H](C(N)=O)N1C[C@H](C=C(F)F)CC1=O [compound A, (2S)-2-[(4S)-4-(2,2-difluorovinyl)-2-oxopyrrolidinyl]butanamide]
Dyskinesia ([4]; compound A 10 mg/kg + L-DOPA 13.9+/−0.8 mg/kg oral): significantly reduced | Dyskinesia ([4]; compound A 30 mg/kg + L-DOPA 13.9+/−0.8 mg/kg oral): significantly reduced | Dyskinesia scores ([4]; compound A 1, 3, 10 and 30 mg/kg + L-DOPA, any time-point after one hour post drug administration, p>0.05): no significant differences | Disability scores [5, 9]: no significant differences | Disability scores [5, 10]: no significant differences | Reversal of parkinsonian symptoms at peak effect, compared with L-DOPA monotherapy ([5]; compound A 1 to 30 mg/kg + L-DOPA 13.9+/−0.8 mg/kg): same magnitude

CC[C@@H](C(N)=O)N1CCCC1=O [levetiracetam, (S)-α-ethyl-2-oxo-1-pyrrolidineacetamide]
Disability scores [2, 9]: no significant differences | Disability scores [2, 10]: no significant differences | Reversal of parkinsonian symptoms at peak effect, compared with L-DOPA monotherapy ([2]; levetiracetam 13 to 60 mg/kg + L-DOPA 12 mg/kg): same magnitude | Dyskinesia ([3]; levetiracetam 13 mg/kg + L-DOPA 12 mg/kg oral, p<0.01): significantly reduced | Dyskinesia ([3]; levetiracetam 30 mg/kg + L-DOPA 12 mg/kg oral, p<0.05): significantly reduced | Dyskinesia ([3]; levetiracetam 60 mg/kg + L-DOPA 12 mg/kg oral, p<0.01): significantly reduced | Dyskinesia scores ([3]; levetiracetam 13, 30 and 60 mg/kg + L-DOPA 12 mg/kg, any time-point after one hour post drug administration, p>0.05): no significant differences | Potentiation of the alleviation of parkinsonism by Ropinirole ([6]; Levetiracetam 13 mg/kg + Ropinirole 3.75 mg/kg oral): significantly potentiated | Parkinsonian disability ([6]; during 3-4 hour time period, P<0.05): significantly reduced | Parkinsonian disability ([6]; over the experiment as a whole, P<0.05): significantly reduced | Potentiation of the alleviation of parkinsonism by Ropinirole ([6]; Levetiracetam 30 mg/kg + Ropinirole 3.75 mg/kg oral): significantly potentiated | Range of movement ([6]; Levetiracetam 30 mg/kg + Ropinirole 3.75 mg/kg, during the 0-1 hour time period, P<0.05): significantly increased | Potentiation of the alleviation of parkinsonism by Ropinirole ([6]; Levetiracetam 60 mg/kg + Ropinirole 3.75 mg/kg oral): not | "on-time" [7, 11]: significantly increased | Activity [7, 11]: significantly increased | Enhancement of "on-time" [7, 11]: approximately 82% | "on-time" [7, 12]: significantly increased | Activity [7, 12]: significantly increased | Enhancement of "on-time" [7, 12]: ~69%
